Several values for one entry are separate records, joined by “and”; a condition that tells them apart may be missing. Equal entries are not always repeated.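 Grown in 96-well plates, cells were treated for 48 hours with each compound at five concentrations. Insufficient inhibition: endpoint recorded as highest concentration tested. GI50 is the concentration that inhibits growth by half. Definition used: TGI = concentration required for complete inhibition of growth.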
How the values were obtained:
Assay in all cases: DTP human tumour cell line panel, 48 h
[1] = test system: MDA-MB-435
[2] = test system: NCI-H226 lung
[3] = test system: OVCAR-3 ovarian
[4] = test system: OVCAR-4 ovarian
[5] = test system: SF-539 CNS
[6] = test system: SK-MEL-2 melanoma
[7] = test system: SNB-75 CNS
[8] = test system: SR leukemia
[9] = test system: UACC-62 melanoma
[10] = test system: UO-31 renal

`O=C(O)c1cccc(N=Nc2c(S(=O)(=O)O)ccc3c2C(=O)c2ccccc2C3=O)c1O` gave a TGI [1] of over 100 µM, a TGI [2] of over 100 µM and a TGI [3] of over 100 µM. For the same molecule, the TGI [4] was over 100 µM, the TGI [5] was over 100 µM and the TGI [6] was over 100 µM. For the same molecule, the TGI [7] was over 100 µM, the TGI [8] was over 100 µM and the TGI [9] was over 100 µM. The TGI [10] was over 100 µM.

`O=C(/C=C/c1cc([N+](=O)[O-])ccc1Cl)c1ccccc1` gave a GI50 [1] of 14.2 µM, a TGI [1] of 35.5 µM and a GI50 [2] of 15.4 µM. It also gave a TGI [2] of 59.3 µM, a GI50 [3] of 5.08 µM and a TGI [3] of 16.1 µM. For the same molecule, the GI50 [4] was 33.9 µM, the TGI [4] was over 100 µM and the GI50 [5] was 16.6 µM. It also gave a TGI [5] of 32.7 µM, a GI50 [6] of 24.6 µM and a TGI [6] of 72.3 µM. It also gave a GI50 [7] of 21.7 µM, a TGI [7] of 99.6 µM and a GI50 [8] of 3.54 µM. It also gave a TGI [8] of over 100 µM, a GI50 [9] of 13.8 µM and a TGI [9] of 32.3 µM. For the same molecule, the GI50 [10] was 11.7 µM and the TGI [10] was 26.4 µM.

For `CC(=Nc1ccccc1)C1=C(O)C(Cc2ccccc2)NC1=O` (configuration not stated), the GI50 [1] was 0.0196 µM, the TGI [1] was 0.0528 µM and the GI50 [2] was 0.244 µM. The TGI [2] was over 100 µM, the GI50 [3] was 0.0237 µM and the TGI [3] was 0.0535 µM. For the same molecule, the GI50 [4] was 0.115 µM, the TGI [4] was over 100 µM and the GI50 [5] was 0.0439 µM. For the same molecule, the TGI [5] was 0.501 µM, the GI50 [6] was 0.0447 µM and the TGI [6] was over 31.5 µM. It also gave a GI50 [7] of 0.0246 µM, a TGI [7] of 0.0788 µM and a GI50 [8] of 0.0231 µM. It also gave a TGI [8] of over 30.9 µM, a GI50 [9] of 0.0404 µM and a TGI [9] of over 100 µM. For the same molecule, the GI50 [10] was 0.0832 µM and the TGI [10] was over 100 µM.

Molecule `COc1cc(O)c(C(=O)/C=C/c2ccc(O)cc2)c(O)c1[C@@H]1C[C@H](CCc2ccc(O)cc2)O[C@H](c2ccc(O)cc2)C1` has a GI50 [1] of 3.89 µM, a TGI [1] of 14 µM and a GI50 [2] of 14.8 µM. For the same molecule, the TGI [2] was 61.2 µM, the GI50 [3] was 4.18 µM and the TGI [3] was 21 µM. It also gave a GI50 [4] of 3.35 µM, a TGI [4] of 16.8 µM and a GI50 [5] of 2.61 µM. It also gave a TGI [5] of 7.4 µM, a GI50 [6] of 3.62 µM and a TGI [6] of 17.5 µM. The GI50 [7] was 2.59 µM, the TGI [7] was 7.44 µM and the GI50 [8] was 2.23 µM. For the same molecule, the TGI [8] was 4.65 µM, the GI50 [9] was 3.38 µM and the TGI [9] was 12.9 µM. It also gave a GI50 [10] of 3.17 µM and a TGI [10] of 14.1 µM.

For `NC(=O)c1ccc2nc(-c3ccc(Oc4ccc(Cl)cc4)cc3)[nH]c2c1`, the GI50 [1] was 34.4 µM and 14.5 µM, the TGI [1] was 75 µM and 31.2 µM and the GI50 [2] was 49.1 µM and 14 µM. For the same molecule, the TGI [2] was 75 µM and 57.6 µM, the GI50 [3] was 20.8 µM and 14.4 µM and the TGI [3] was 75 µM and 34.8 µM. For the same molecule, the GI50 [4] was 41.7 µM and 11.4 µM, the TGI [4] was 75 µM and 31.1 µM and the GI50 [5] was 27.6 µM and 13 µM. For the same molecule, the TGI [5] was 75 µM and 28 µM, the GI50 [6] was 18.3 µM and 21.2 µM and the TGI [6] was 75 µM and 40.2 µM. For the same molecule, the GI50 [7] was 37 µM and 18.3 µM, the TGI [7] was 75 µM and 38.5 µM and the GI50 [8] was 17.9 µM and 20.6 µM. The TGI [8] was 61.5 µM and 57.3 µM, the GI50 [9] was 75 µM and 16.4 µM and the TGI [9] was 75 µM and 30.7 µM. The GI50 [10] was 30 µM and 24.1 µM and the TGI [10] was 75 µM and > 100 µM.

With `COc1cc(/C=C/C(=O)c2ccc(NC(=O)CN3CCN(c4cc5c(cc4F)c(=O)c(C(=O)O)cn5C4CC4)CC3)cc2)cc(OC)c1OC` the GI50 [1] was 0.433 µM, the GI50 [2] was 1.52 µM and the TGI [2] was over 51 µM. For the same molecule, the GI50 [3] was 0.364 µM, the TGI [3] was 1.37 µM and the GI50 [4] was 1.38 µM. The TGI [4] was 22.3 µM, the GI50 [5] was 0.721 µM and the TGI [5] was 3.03 µM. For the same molecule, the GI50 [6] was 2.21 µM, the TGI [6] was 5.78 µM and the GI50 [7] was 2.41 µM. For the same molecule, the TGI [7] was over 23.9 µM, the GI50 [8] was 0.245 µM and the TGI [8] was over 100 µM. For the same molecule, the GI50 [9] was 0.887 µM, the TGI [9] was 3.39 µM and the GI50 [10] was 1.38 µM. The TGI [10] was 7.78 µM.

For `CCC1CCc2nc3sc(C(=O)Nc4cccc(F)c4)c(N)c3cc2C1` (configuration not stated), the GI50 [1] was 0.11 µM, the TGI [1] was 0.616 µM and the GI50 [2] was over 100 µM. For the same molecule, the TGI [2] was over 100 µM, the GI50 [3] was 0.757 µM and the TGI [3] was over 100 µM. The GI50 [4] was over 100 µM, the TGI [4] was over 100 µM and the GI50 [5] was over 100 µM. It also gave a TGI [5] of over 100 µM, a GI50 [6] of over 100 µM and a TGI [6] of over 100 µM. For the same molecule, the GI50 [7] was 9.19 µM, the TGI [7] was over 100 µM and the GI50 [8] was 0.379 µM. For the same molecule, the TGI [8] was over 100 µM, the GI50 [9] was 0.376 µM and the TGI [9] was over 100 µM. It also gave a GI50 [10] of over 100 µM and a TGI [10] of over 100 µM.

For `COc1ccc2c(c1)n([O-])c1ccccc1[n+]2=O`, the GI50 [1] was 65.4 µM and 22.2 µM, the TGI [1] was > 100 µM and 46.4 µM and the TGI [2] was 91.4 µM and 91.6 µM. For the same molecule, the TGI [3] was > 100 µM and 58.7 µM, the TGI [4] was 77.8 µM and the GI50 [5] was 46.5 µM and 17.4 µM. For the same molecule, the TGI [5] was > 100 µM and 45.9 µM, the TGI [6] was 74.7 µM and 54.5 µM and the TGI [7] was over 100 µM. The GI50 [8] was 7.56 µM and 2.42 µM, the TGI [8] was 59.6 µM and 12.2 µM and the TGI [9] was > 100 µM and 65 µM. For the same molecule, the TGI [10] was 46 µM and 36.6 µM.

Molecule `COc1ccc2c(c1)C(=O)c1c-2c(Nc2ccc(Cl)cc2)nc2ccccc12` has a GI50 [1] of 38.6 µM, a TGI [1] of over 100 µM and a GI50 [2] of 10.3 µM. The TGI [2] was 50 µM, the GI50 [3] was 33.6 µM and the TGI [3] was over 100 µM. The GI50 [4] was 10.1 µM, the TGI [4] was 42.9 µM and the GI50 [5] was 8.76 µM. For the same molecule, the TGI [5] was 26.2 µM, the GI50 [6] was 17 µM and the TGI [6] was 56.1 µM. For the same molecule, the GI50 [7] was 4.27 µM, the TGI [7] was 22.8 µM and the GI50 [8] was 14 µM. For the same molecule, the TGI [8] was 58.2 µM, the GI50 [9] was 11.3 µM and the TGI [9] was 26 µM. For the same molecule, the GI50 [10] was 25.8 µM and the TGI [10] was over 100 µM.

`Cn1ccnc1C(=O)/C=C/c1ccccc1` was tested, and the GI50 [1] was 3.21 µM, the TGI [1] was 10.2 µM and the GI50 [2] was 3.24 µM. For the same molecule, the TGI [2] was 14.9 µM, the GI50 [3] was 3.22 µM and the TGI [3] was 8.5 µM. The GI50 [4] was 7.47 µM, the TGI [4] was 26 µM and the GI50 [5] was 2.18 µM. It also gave a TGI [5] of 4.78 µM, a GI50 [6] of 3.63 µM and a TGI [6] of 17.1 µM. The GI50 [7] was 2.55 µM, the TGI [7] was 6.54 µM and the GI50 [8] was 1.38 µM. The TGI [8] was 6.05 µM, the GI50 [9] was 7.46 µM and the TGI [9] was 21.3 µM. It also gave a GI50 [10] of 4.69 µM and a TGI [10] of 71.4 µM.
